Reference: patent US11413328B2, “Methods for treating inflammatory conditions of the lungs” (priority 2016, dated 2022)
Bridges are numbered along the chain shown (N, C = ends). Where no end group is shown, it is not given here.

Key:
[1] = tested on: murine house dust mite driven model of allergic asthma; assay: Lung resistance and compliance, prophylactic treatment in HDM asthma model (Example 9); assay type: in vivo, BALB/c mice
Protocol: (§1) Female 7-10 weeks old BALB/c mice were randomly allocated into 5 study groups one day prior to study start and subcutaneously (SC) sensitized to house dust mite (100 μg HDM in 200 μL saline plus Freund's complete adjuvant in 0.9% saline). The mice were treated with hBD-2 orally and intranasally respectively at a dose of 1.2 mg/kg/day (0.4 mg/kg TID) starting on day 12 in the morning and continued TID at approximately 6 hours intervals. The last dose was administered on day 14 one hour prior to challenge. The total number of doses were 8 doses or a total of […] hBD-2. Mice were then intranasally (IN) challenged with HDM on day 14 (HDM 25 μg in 50 μL of saline).
Lung function: Starting 48 hours after HDM challenge, measurements of lung resistance and lung compliance were carried out after methacholine challenge (3.125 MCH1; 6.25 MCH2; 12.5 MCH3 and 25 mg/mL MCH4) by anaesthetized, cannulated mice using DSI's Buxco Finepoint RC system. Data are represented as airway resistance at 10 mg/kg methacholine and as dose responsive curves.

[2] = tested on: murine, infection induced, severe, steroid-insensitive, neutrophilic, allergic airways disease model of asthma; assay: Airway hyper-responsiveness (Flexivent), Ovalbumin/C. muridarum steroid-insensitive asthma model; assay type: in vivo, BALB/c mice; details: Ova sensitized, C. muridarum infected mice; hBD-2 IN 5 mg/kg day 30, 32, 34; DEX IN 2 mg/kg day 32-34; vs Saline control
Protocol: Female 6-8 weeks old BALB/c mice were intraperitoneally (IP) sensitized to ovalbumin 50 μg with the adjuvant alum 1 mg in 200 μL 0.9% saline. Mice were intranasally (IN) challenged with Ova on day 12-13 and day 33-34 (10 μg in 50 μL sterile saline).

[3] = tested on: murine house dust mite/Freunds complete adjuvant driven model of allergic asthma; assay: Lung histopathology (H&E/PAS), HDM asthma model (Example 3); assay type: in vivo, BALB/c mice; details: vs HDM challenged vehicle
Protocol: Treatment regime: Female 7-10 weeks old BALB/c mice randomly allocated into 4 study groups one day prior to study start were subcutaneously (SC) sensitized to house dust mite (100 μg HDM in 200 μL saline plus Freund's complete adjuvant in 0.9% saline). Mice were intranasally (IN) challenged with HDM on day 14 (HDM 25 μg in 50 μL of saline). hBD-2 was administered IN or orally (0.4 mg/kg TID IN; 0.4 mg/kg TID orally, 50 μL phosphate buffered saline) on day 14. The initial dose was administered 60 minutes prior to challenge, and the subsequent doses approximately 6 hours apart. […] Lungs from other 8 animals per group were inflated in situ with 10% buffered formalin, removed from thorax, placed individually in 10% buffered formalin, paraffin embedded in toto, sectioned and H&E/PAS stained. The paraffin blocks were retained for the IHC analysis. Cellular influx (mononuclears, eosinophils, neutrophils) was assessed semi-quantitatively on H&E stained slides separately for peri-bronchial/bronchiolar and perivascular space as follows: [table] Overall score for inflammation was calculated as sum of all individual scores.

[4] = tested on: murine house dust mite driven model of allergic asthma; assay: Cell counts in BALF, prophylactic treatment in HDM asthma model (Example 9); assay type: in vivo, BALB/c mice; details: prophylactic oral 0.4 mg/kg TID day 12 to day 14
Protocol: as §1
Airway inflammation: At 48 hours post challenge, bronchoalveolar lavage was performed washing the lungs with 3 volumes of cold PBS (0.4; 0.3 and 0.3 mL, total 1 mL). Total and differential leucocyte cell counts were determined on an automated haematological analyser Sysmex XT-2000iV.

[5] = tested on: microbiota of the intestine; assay: 16S microbiota analysis, interventional defensin treatment in diet-induced obese mice (Example 11); assay type: in vivo; details: intervention
Description: The experiment elucidates the effect of hBD2 and HD5 on the microbiota in diet-induced obese mice. A run-in period of 13 weeks where mice were fed a very HFD (60% energy from fat) preceded the intervention. Only mice meeting the criteria of a minimum of 12 gram weight gain (approximately 50% of initial bodyweight) during the run-in period were included in the final analyses. […] They were exposed to all experimental tests, but excluded from the analyses.
Before the intervention all mice were MR scanned. Cages of mice were allocated to experimental groups based on their fat mass. All subsequent measures were paired with data from the same mouse before the intervention. A LFD (low fat diet) reference group was running in parallel. As controls for the intervention 2 additional groups were included: 1 very HFD and 1 LFD. Experimental mice stayed on the very HFD during the intervention. The mice were on the experimental diet for 10 weeks. They were co-housed throughout the experiment, 4 mice per cage, 3 cages per group. All tests ran over 3 days, 1 cage per group per day.
Microbial analyses were carried out to study the microbiota of the intestine. Longitudinal 16S characterization was conducted on 4 paired samples from 60 mice, 240 samples in total. Each mouse was sampled prior to diet change, 1 week post diet change, 4 weeks post diet change and at termination, thus ensuring a thorough characterization of the faecal microbiota as a result of defensin treatment.

[6] = tested on: microbiota of the intestine; assay: 16S microbiota analysis, prophylactic defensin treatment in high fat diet model (Example 10); assay type: in vivo, mice
Description: Mice were housed in trios, 4 cages per group. Feed intake was registered daily just before lights were turned off at […]. Individual mice were subjected to experimental procedures in altered order both group and cage wise. Mice were kept at room temperature under a 12-hour light/dark cycle at SPF standard conditions. The treatment regime is described in FIG. 38. Mice were fed either a high fat diet (HFD) or a low fat (LF) control diet. The HFD contained 4 subgroups; 1 hBD2, 1 HD5, 1 hBD2/HD5 and 1 standard HFD without supplementation of defensins. Defensin concentration was 1.2 mg hBD2 per kg mouse per day. HD5 was given in equimolar concentration to hBD2. […] Microbial analyses were carried out to study the microbiota of the intestine. Longitudinal 16S characterization was conducted on 4 paired samples from 60 mice, 240 samples in total. Each mouse was sampled prior to diet change, 1 week post diet change, 4 weeks post diet change and at termination, thus ensuring a thorough characterization of the faecal microbiota as a result of defensin treatment.

[7] = prophylactic intranasal 0.4 mg/kg TID day 12 to day 14
[8] = prophylactic oral 0.4 mg/kg TID day 12 to day 14

Sequence: GIGDPVTCLKSGAICHPVFCPRRYKQIGTCGLPGTKCCKKP (disulfide 8-37, 15-30, 20-38 (inferred)) [hBD-2, human beta defensin 2]
- decrease of pulmonary compliance [1, 7]: inhibiting
- increase of airway resistance [1, 7]: inhibiting
- decrease of pulmonary compliance [1, 8]: inhibiting
- increase of airway resistance [1, 8]: inhibiting
- AHR (airway hyper-responsiveness) [2]: completely normalized
- increase in histological inflammation of lung tissue ([3]; intranasal 0.4 mg/kg TID day 14): effectively inhibited
- increase in histological inflammation of lung tissue ([3]; oral 0.4 mg/kg TID day 14): effectively inhibited
- neutrophil counts in BALF [4]: significantly inhibited
- abundance of Alloprevotella in the colon ([5]; HD5 p<0.02): no influence
- relative abundance of Bifidobacteriaceae in the small intestine ([5]; hBD2 p<0.0001): dramatically and statistically significant increased
- relative abundance of Bifidobacteriaceae in the colon ([5]; p<0.04): dramatically and statistically significant increased
- effect on microbial presence / microbial abundance ([6]; 1.2 mg hBD2 per kg per day in feed, HD5 equimolar, combination 50% + 50%): affected primarily the microbial presence
- abundance of Barnesiella in the colon ([6]; prophylactic treatment, p<0.03): statistically significant increase
- abundance of Lactobacillaceae in colon ([6]; prophylactic treatment, p=0.1): trend towards lower abundance
